This passage reports IC50 and melting point results from US8492440B2, “Difluorophenyldiacylhydrazide derivatives” (Merck Patent GmbH, priority 2008, dated 2013).

As usually defined, the IC50 is the concentration at which inhibition is half-maximal. Low readings indicate inhibition by little substance, high ones a need for much substance. Broadly, the melting point is the temperature of the solid-liquid transition.

The target of data set [1] is T1, SGK1 (Homo sapiens, UniProt O00141).
T1 sequence (O00141 1-431): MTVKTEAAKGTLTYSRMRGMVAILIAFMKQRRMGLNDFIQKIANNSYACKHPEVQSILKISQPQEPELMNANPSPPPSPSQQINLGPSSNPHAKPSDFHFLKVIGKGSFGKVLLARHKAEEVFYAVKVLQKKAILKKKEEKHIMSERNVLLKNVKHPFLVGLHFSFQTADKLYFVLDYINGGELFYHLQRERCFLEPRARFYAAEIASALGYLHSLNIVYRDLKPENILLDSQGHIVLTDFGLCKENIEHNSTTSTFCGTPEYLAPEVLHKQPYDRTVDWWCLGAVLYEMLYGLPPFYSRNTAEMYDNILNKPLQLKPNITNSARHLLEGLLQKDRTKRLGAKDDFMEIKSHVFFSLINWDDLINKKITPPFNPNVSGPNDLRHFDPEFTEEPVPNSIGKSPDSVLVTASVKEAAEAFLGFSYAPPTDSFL
Nature of the data set: SGK1 protein kinase inhibition (enzyme), filter binding method. The class given is biochemical. An excerpt: Other assays are known from the literature and could readily be performed by the person skilled in the art (see, for example, Dhanabal et al., Cancer Res. 59:189-197; Xin et al., J. Biol. Chem. 274:9116-9121; Sheu et al., Anticancer Res. 18:4435-4441; Ausprunk et al., Dev. Biol. 38:237-248; Gimbrone et al., J. Natl. Cancer Inst. 52:413-427; Nicosia et al., In Vitro 18:538-549). The inhibition of SGK1 protein kinase can be determined in the filter binding method.

The target of data set [2] is T1, SGK1. Nature of the data set: Cell assay: P-NDRG1 level in HeLa cells (western blot), intracellular SGK1 inhibition. Also on record: endogenous in cells; host or cells: HeLa. As to conditions: decrease of NDRG1 phosphorylation, 24 hrs incubation. The class given is cell-based. The method, then: HeLa cells are plated out with a density of 10−20×10^3 cells/cm^2 in 6-well MTPs (Costar Corning, #3506) in DMEM medium, supplemented with 10% foetal calf serum (FCS), 2 mM glutamine and 1 mM sodium pyruvate. After 24 hrs. at 37° C. and with 5% CO2 in a cell incubator, each well is furthermore supplemented with 25 μl of a 100× DMSO solution of the compound; this solution is diluted 100-fold in the supernatant of the cell culture, which results in the expected SGK1 inhibitor concentration at a 1% DMSO concentration. The cells are incubated under the same conditions for a further 24 hrs.
The supernatants are subsequently removed (by suction), and the cells are washed once with 1 ml/well of ice-cold phosphate-buffered saline solution (PBS). 250 μl of the ice-cold lysis buffer (50 mM tris/HCl, 1 mM EDTA, 1 mM EGTA, 0.5 mM activated Na3VO4, 10 mM glycerophosphate, 50 mM NaF, 5 mM Na pyrophosphate, 1% Triton X100, 1 mM DTT, 0.1 mM PMSF and 1 μM microcystine and in each case 1 μg/ml of aprotinin, pepstatin or leupeptin) are added to each well. The cells are scraped down from the base of the well, and the cell suspension is sucked up several times with an Eppendorf pipette; the cells are thereby lysed and homogenised. […] The binding of the primary antibody was determined using antisheep IG antibody conjugated to […] peroxidase (1:5000 dilution, Calbiochem), followed by amplified chemiluminescence (SuperSignal West Dura Extended Duration, Pierce). […] The NDRG1 levels are determined after stripping of the nitrocellulose membranes using Restore™ western blot stripping buffer and the Pierce method.
On use of the P-NDRG1 antiserum, a decrease in the phosphorylation level of the NDRG1 protein can easily be detected. The decrease in the intensity of the bands in the western blot on use of the P-NDRG1 antiserum is determined, plotted against the cell culture medium concentration of the SGK1 inhibitor in a semi-logarithmic diagram and used for assessment of the intracellular inhibitor efficacy ([…]) of the SGK1 inhibitor. […]
A general note: Immunoblotting shows a protein as a band on a membrane.

`CCc1c(C(=O)NNC(=O)Cc2cc(F)c(F)cc2OC)ccc(O)c1C` [Compound 2, N′-[2-(3,4-Difluoro-6-methoxyphenyl)acetyl]-2-ethyl-4-hydroxy-3-methyl-benzohydrazide] yielded a melting point of 220.7 °C. For the same compound, on SGK1 [1], the IC50 is above 10 nM. Moreover, the IC50 against SGK1 [2] was above 500 nM.
As to `CCc1c(C(=O)NNC(=O)Cc2ccc(F)c(F)c2)ccc(O)c1C` [Compound 3, N′-[2-(3,4-Difluorophenyl)acetyl]-2-ethyl-4-hydroxy-3-methylbenzohydrazide], the IC50 is above 10 nM at SGK1 [1] and above 500 nM at SGK1 [2].
`CCc1c(C(=O)NNC(=O)Cc2cc(F)c(F)c(OC)c2)ccc(O)c1C` [Compound 1, N′-[2-(3,4-difluoro-5-methoxyphenyl)acetyl]-2-ethyl-4-hydroxy-3-methyl-benzohydrazide] came in with a melting point of 217 °C. The IC50 on SGK1 [1] was below 10 nM. The IC50 on SGK1 [2] is below 500 nM.
